From PubChem BioAssay (NCI)
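Method: 48-hour compound exposure of cells in 96-well plates, five concentrations, linear interpolation of endpoints. TGI denotes the concentration required for complete inhibition of growth.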

Each compound was assayed on COLO 205 colon (assay: NCI anticancer screen, dose series, 48 h).

With CN1[C@@H]2C[C@@H](OC(=O)[C@H](CO)c3ccccc3)C[C@H]1[C@@H]1O[C@@H]12 as the compound, how does the TGI read?
The TGI was over 100 µM.

Which TGI does the source give for N#Cc1c(Cl)cc(Cl)n2c1nc1ccccc12 here?
The TGI was 21.2 µM.

With CC1=C(O)C(=O)C=C2C1=CC=C1[C@@]2(C)CC[C@@]2(C)[C@@H]3C[C@](C)(C(=O)O)CC[C@]3(C)CC[C@]12C as the compound, how does the TGI read?
Its TGI is 0.041 µM.

COc1nc2nccnc2c(=O)n1C was tested. Which TGI did it give?
The TGI was over 10 µM.

For CCOC(=O)NC(Nc1cccc(C(F)(F)F)c1)(C(F)(F)F)C(F)(F)F, which TGI is on record?
Its TGI is over 100 µM.

How did the TGI turn out when COc1ccc2cc(C(C)C(=O)N3CCOC3=O)ccc2c1 (stereo not given) was run?
The TGI was over 100 µM.

These compounds were tested on DU-145 prostate (assay: NCI anticancer screen, dose series, 48 h).

CC1=CC(C/C(C)=C/COc2ccc3ccc(=O)oc3c2)OC1=O (stereo not given) was tested. Which TGI did it give?
The TGI was over 100 µM.

With CN1[C@@H]2C[C@@H](OC(=O)[C@H](CO)c3ccccc3)C[C@H]1[C@@H]1O[C@@H]12 as the compound, how does the TGI read?
The TGI was over 100 µM.

How did the TGI turn out when N#Cc1c(Cl)cc(Cl)n2c1nc1ccccc12 was run?
The TGI was 31.8 µM.

For CC1=C(O)C(=O)C=C2C1=CC=C1[C@@]2(C)CC[C@@]2(C)[C@@H]3C[C@](C)(C(=O)O)CC[C@]3(C)CC[C@]12C, which TGI is on record?
Its TGI is 0.202 µM.

COc1nc2nccnc2c(=O)n1C was tested. Which TGI did it give?
Its TGI is over 10 µM.

For CCOC(=O)NC(Nc1cccc(C(F)(F)F)c1)(C(F)(F)F)C(F)(F)F, which TGI is on record?
The TGI was over 100 µM.

COc1ccc2cc(C(C)C(=O)N3CCOC3=O)ccc2c1 (stereo not given) was tested. Which TGI did it give?
Its TGI is over 100 µM.

What follows are compounds tested on EKVX NSCLC (assay: NCI anticancer screen, dose series, 48 h).

For CC1=CC(C/C(C)=C/COc2ccc3ccc(=O)oc3c2)OC1=O (stereo not given), which TGI is on record?
Its TGI is over 100 µM.

How did the TGI turn out when CN1[C@@H]2C[C@@H](OC(=O)[C@H](CO)c3ccccc3)C[C@H]1[C@@H]1O[C@@H]12 was run?
Its TGI is over 100 µM.

Which TGI does the source give for N#Cc1c(Cl)cc(Cl)n2c1nc1ccccc12 here?
Its TGI is 67.6 µM.

For CC1=C(O)C(=O)C=C2C1=CC=C1[C@@]2(C)CC[C@@]2(C)[C@@H]3C[C@](C)(C(=O)O)CC[C@]3(C)CC[C@]12C, which TGI is on record?
The TGI was 0.174 µM.

COc1nc2nccnc2c(=O)n1C was tested. Which TGI did it give?
The TGI was over 10 µM.

Which TGI does the source give for CCOC(=O)NC(Nc1cccc(C(F)(F)F)c1)(C(F)(F)F)C(F)(F)F here?
The TGI was over 100 µM.

COc1ccc2cc(C(C)C(=O)N3CCOC3=O)ccc2c1 (stereo not given) was tested. Which TGI did it give?
Its TGI is over 100 µM.

The compounds below were run on HCC-2998 colon (assay: NCI anticancer screen, dose series, 48 h).

CC1=CC(C/C(C)=C/COc2ccc3ccc(=O)oc3c2)OC1=O (stereo not given) was tested. Which TGI did it give?
Its TGI is over 100 µM.

N#Cc1c(Cl)cc(Cl)n2c1nc1ccccc12 was tested. Which TGI did it give?
The TGI was 8.44 µM.

CC1=C(O)C(=O)C=C2C1=CC=C1[C@@]2(C)CC[C@@]2(C)[C@@H]3C[C@](C)(C(=O)O)CC[C@]3(C)CC[C@]12C was tested. Which TGI did it give?
Its TGI is 0.155 µM.

For COc1nc2nccnc2c(=O)n1C, which TGI is on record?
The TGI was over 10 µM.

Which TGI does the source give for CCOC(=O)NC(Nc1cccc(C(F)(F)F)c1)(C(F)(F)F)C(F)(F)F here?
Its TGI is over 100 µM.

COc1ccc2cc(C(C)C(=O)N3CCOC3=O)ccc2c1 (stereo not given) was tested. Which TGI did it give?
Its TGI is over 100 µM.

What follows are compounds tested on HCT-116 colon (assay: NCI anticancer screen, dose series, 48 h).

CC1=CC(C/C(C)=C/COc2ccc3ccc(=O)oc3c2)OC1=O (stereo not given) was tested. Which TGI did it give?
The TGI was over 100 µM.

For CN1[C@@H]2C[C@@H](OC(=O)[C@H](CO)c3ccccc3)C[C@H]1[C@@H]1O[C@@H]12, which TGI is on record?
The TGI was over 100 µM.

With N#Cc1c(Cl)cc(Cl)n2c1nc1ccccc12 as the compound, how does the TGI read?
Its TGI is 29.8 µM.

Which TGI does the source give for CC1=C(O)C(=O)C=C2C1=CC=C1[C@@]2(C)CC[C@@]2(C)[C@@H]3C[C@](C)(C(=O)O)CC[C@]3(C)CC[C@]12C here?
Its TGI is 0.0637 µM.

How did the TGI turn out when COc1nc2nccnc2c(=O)n1C was run?
Its TGI is over 10 µM.

CCOC(=O)NC(Nc1cccc(C(F)(F)F)c1)(C(F)(F)F)C(F)(F)F was tested. Which TGI did it give?
Its TGI is over 100 µM.

For COc1ccc2cc(C(C)C(=O)N3CCOC3=O)ccc2c1 (stereo not given), which TGI is on record?
The TGI was over 100 µM.

What follows are compounds tested on HCT-15 colon (assay: NCI anticancer screen, dose series, 48 h).

With CC1=CC(C/C(C)=C/COc2ccc3ccc(=O)oc3c2)OC1=O (stereo not given) as the compound, how does the TGI read?
Its TGI is over 100 µM.

With CN1[C@@H]2C[C@@H](OC(=O)[C@H](CO)c3ccccc3)C[C@H]1[C@@H]1O[C@@H]12 as the compound, how does the TGI read?
The TGI was over 100 µM.

For N#Cc1c(Cl)cc(Cl)n2c1nc1ccccc12, which TGI is on record?
The TGI was 12.3 µM.

CC1=C(O)C(=O)C=C2C1=CC=C1[C@@]2(C)CC[C@@]2(C)[C@@H]3C[C@](C)(C(=O)O)CC[C@]3(C)CC[C@]12C was tested. Which TGI did it give?
The TGI was 0.0282 µM.

Which TGI does the source give for COc1nc2nccnc2c(=O)n1C here?
The TGI was over 10 µM.

With CCOC(=O)NC(Nc1cccc(C(F)(F)F)c1)(C(F)(F)F)C(F)(F)F as the compound, how does the TGI read?
The TGI was over 100 µM.

COc1ccc2cc(C(C)C(=O)N3CCOC3=O)ccc2c1 (stereo not given) was tested. Which TGI did it give?
The TGI was over 100 µM.

Each compound was assayed on HL-60(TB) leukemia (assay: NCI anticancer screen, dose series, 48 h).

How did the TGI turn out when CC1=CC(C/C(C)=C/COc2ccc3ccc(=O)oc3c2)OC1=O (stereo not given) was run?
Its TGI is over 100 µM.

For N#Cc1c(Cl)cc(Cl)n2c1nc1ccccc12, which TGI is on record?
The TGI was over 31.1 µM.

CC1=C(O)C(=O)C=C2C1=CC=C1[C@@]2(C)CC[C@@]2(C)[C@@H]3C[C@](C)(C(=O)O)CC[C@]3(C)CC[C@]12C was tested. Which TGI did it give?
The TGI was 0.0585 µM.

With COc1nc2nccnc2c(=O)n1C as the compound, how does the TGI read?
The TGI was over 10 µM.

How did the TGI turn out when CCOC(=O)NC(Nc1cccc(C(F)(F)F)c1)(C(F)(F)F)C(F)(F)F was run?
The TGI was over 100 µM.

With COc1ccc2cc(C(C)C(=O)N3CCOC3=O)ccc2c1 (stereo not given) as the compound, how does the TGI read?
Its TGI is over 100 µM.

Each compound was assayed on HOP-62 NSCLC (assay: NCI anticancer screen, dose series, 48 h).

CC1=CC(C/C(C)=C/COc2ccc3ccc(=O)oc3c2)OC1=O (stereo not given) was tested. Which TGI did it give?
The TGI was over 100 µM.

For CN1[C@@H]2C[C@@H](OC(=O)[C@H](CO)c3ccccc3)C[C@H]1[C@@H]1O[C@@H]12, which TGI is on record?
The TGI was over 100 µM.

For N#Cc1c(Cl)cc(Cl)n2c1nc1ccccc12, which TGI is on record?
The TGI was 51.7 µM.

For CC1=C(O)C(=O)C=C2C1=CC=C1[C@@]2(C)CC[C@@]2(C)[C@@H]3C[C@](C)(C(=O)O)CC[C@]3(C)CC[C@]12C, which TGI is on record?
Its TGI is 0.963 µM.
